Measured values taken from US20170216328A1, “METHODS AND COMPOSITIONS FOR MICROBIOME ALTERATION” (Ritter Pharmaceuticals, Inc., priority 2014, published 2017).

System: Bifidobacterium species and strains
Experiment: Comparative growth of Bifidobacterium species and strains in scratch MRS with 2% carbohydrate
Type: cell-based
Description: The objective of the study was to determine the ability of various Bifidobacterium species and strains to grow on galactooligosaccharides
The growth of Lactobacillus and Bifidobacterium strains was evaluated in scratch MRS (Table 16) supplemented with 2% of a carbohydrate solution. The carbohydrates used in the experiments were: Glucose—Fisher; Lactose—Fisher; GOS1-95% GOS purity from Inalco SPA—Provided by Ritter Pharmaceuticals; GOS2-90% GOS purity from GTC—provided by Ritter Pharmaceuticals.
Carbohydrate stock solutions were filter sterilized and then added to either a scratch MRS formulation (Table 16), or a semisynthetic medium (Table 17).
Lactobacillus and Bifidobacterium cultures were propagated in MRS broth overnight, and then transferred once through the test medium. For growth experiments, cultures were inoculated into the MRS scratch medium containing one of the 4 carbohydrates to be examined. Growth was monitored either: **automatically, using a FLUOStar OPTIMA microtiter plate reader to monitor the change in absorbance (A600) as a function of the time. The strains were incubated at 37 C aerobically for these experiments; or ** manually, using a standard spectrophotometer to monitor the change in OD600 nm over time, in 5 ml liquid culture tubes. These cultures were incubated anaerobically at 37° C. in a COY anaerobic chamber, flushed with anaerobic gas. […]

OC[C@H]1O[C@@H](O[C@H]2[C@H](O)[C@@H](O)C(O)O[C@@H]2CO)[C@H](O)[C@@H](O)[C@H]1O (stereo partly shown) [lactose]
Growth of Bifidobacterium strains on lactose: none of the Bifidobacterium strains used in these experiments grew on lactose, except for B. pseudolongum
